Data set [1] in a line: antagonism of maximal electroshock seizures (MES). The format is in vivo. To be noted: MES test; read-out: MES - ED50 (effective dose in 50% of treated animals).
Data set [2] in a line: in vivo. Here is the method: The neurotoxicity of the compounds and of the reference anticonvulsants was assessed with the rotorod test (Dunan and Miye, J. Am. Pharm. Ass. Sci. Ed., 1957, 46, 208; Kinnard et al. J. Pharmacol. Exp. Ther. 1957, 121, 354; Horowitz, Nature, 1963, 200, 369).
For instance, following Table 1 summarizes the activity and neurotoxicity data obtained in the MES test and in the rotorod test, respectively, for a representative group of compounds according to the present invention, in comparison with the prior art compound 2-(4-benzyl-aminobenzyl)aminopropanamide, dihydrochloride (internal code FCE 26749) which is known from WO-90/14334.
TD50 means toxic dose in 50% of treated animals

Each structure is given as a SMILES string. Where a name gives a salt, the structure may show the parent alone.

By ED50 is commonly meant the midpoint of the dose-response relation. In the case of `CC(NCc1ccc(NCc2ccccc2)cc1)C(N)=O` (stereo not drawn) [FCE 26749, 2-(4-benzyl-aminobenzyl)aminopropanamide, dihydrochloride, reference compound], the ED50 in data set [1] came to 9.5 mg/kg. Also, in data set [2], the TD50 came to 217 mg/kg and the selectivity ratio was 23.
With `C[C@H](NCc1ccc(NCc2cccc(F)c2)cc1)C(N)=O` [FCE 27232, 2-[4-(3-fluorobenzyl)aminobenzyl]aminopropanamide, dihydrochloride], in data set [1], the median effective dose (ED50) amounted to 6.4 mg/kg. Also, in data set [2], the TD50 amounted to 516 mg/kg and the selectivity ratio turned out to be 81.
Consider `CC(NCc1ccc(NCc2ccc(Cl)cc2)cc1)C(N)=O.Cl.Cl` (stereo not drawn) [FCE 28622, 2-[4-(4-chlorobenzyl)aminobenzyl]aminopropanamide, dihydrochloride], for which, in data set [1], the ED50 was determined as 18.7 mg/kg. Also, in data set [2], the TD50 is 1640 mg/kg and the selectivity ratio came to 88.
For `CC(NCc1ccc(NCCc2ccccc2)cc1)C(N)=O.Cl.Cl` (stereo not drawn) [FCE 28623, 2-[4-(2-phenylethyl)aminobenzyl]aminopropanamide, dihydrochloride], the ED50 in data set [1] is 17.1 mg/kg. In addition, in data set [2], the TD50 worked out at 917 mg/kg and the selectivity ratio turned out to be 54.
In the case of `CC(NCc1ccc(NCc2ccc(Br)cc2)cc1)C(N)=O.Cl.Cl` (stereo not drawn) [FCE 28639, 2-[4-(4-bromobenzyl)aminobenzyl]aminopropanamide, dihydrochloride], the 50% effective dose (ED50) in data set [1] was determined as 29.1 mg/kg. In data set [2], the TD50 turned out to be 1900 mg/kg and the selectivity ratio is 65.
On to `CC(NCc1ccc(NCc2ccc(F)cc2)cc1)C(N)=O.Cl.Cl` (stereo not drawn) [FCE 28640, 2-[4-(4-fluorobenzyl)aminobenzyl]aminopropanamide, dihydrochloride], for which, in data set [1], the median effective dose (ED50) was determined as 26.5 mg/kg. In addition, in data set [2], the TD50 came out at 1680 mg/kg and the selectivity ratio was found to be 63.
Consider `CC(NCc1ccc(NCc2cccc(Cl)c2)cc1)C(N)=O.Cl.Cl` (stereo not drawn) [FCE 28714, 2-[4-(3-chlorobenzyl)aminobenzyl]aminopropanamide, dihydrochloride], for which the ED50 in data set [1] is 11.3 mg/kg. Besides, in data set [2], the TD50 amounted to 663 mg/kg and the selectivity ratio was found to be 59.

For the origin of these results see patent US5449692A, “Substituted (arylalkylaminobenzyl) aminopropionamide derivatives and process for their preparation” (Farmitalia Carlo Erba S.r.l., priority 1993, dated 1995).
